Consider 87 compounds from PubChem BioAssay AID2305 (GlaxoSmithKline (GSK), 2010).

Each structure is given as a SMILES string.

The test system of the assay is P. falciparum 3D7 growth, pLDH absorbance. The experiment in a line: blood-stage malaria parasite growth potency – strain 3D7, dose response (AID 2305).
For the compound `O=C(Nc1ccccc1)N1CCC(CN2CCOC(c3ccccc3)(c3ccccc3)C2)CC1`, the 50% inhibitory concentration (IC50) was 210 nM. This counts as sub-micromolar.

Turning to `CCOC(=O)CCCc1cc(NC2CCN(C)CC2)nc(Nc2ccc(OC)cc2)n1`, the IC50 worked out at 700 nM.

Consider `O=C(Nc1cccc(-c2nc3ccccc3[nH]2)c1)c1cccc(NC(=O)c2ccco2)c1`, for which the IC50 came to 360 nM. To `O=C(Nc1ccc(OC2CCN(Cc3ccsc3)CC2)c(Cl)c1)c1cccs1` belongs 600 nM. To `CCCCCNc1ccnc2cc(Cl)ccc12` belongs 510 nM; to `OCC1CCN(Cc2ccc(-c3cccc(-c4nc5ccc(C(F)(F)F)cc5[nH]4)c3)cc2)CC1`, 480 nM. `O=C(Nc1cccnc1)c1cc(-c2cc(Cl)ccc2O)n[nH]1` showed a half-maximal inhibitory concentration (IC50) of 720 nM. Compound `N#Cc1ccc(NC(=O)c2ccc(Cc3ccc4c(c3)CCN(C3CCC3)CC4)cn2)cc1` returned an IC50 of 1120 nM.

Regarding `CC(=O)N[C@H](C(=O)Nc1ccc(-c2ccc(-c3nc4ccc(C(F)(F)F)cc4[nH]3)s2)cc1)C(C)C`, the half-inhibitory concentration (IC50) amounted to 1030 nM. The value for `Clc1nc(Cl)c2c(ccn2Cc2ccccc2)n1` was 790 nM; that for `COC(=O)c1ccc(CC(C)NCC(O)c2ccc(Cl)c(Cl)c2)cc1` (configuration not stated) was 1000 nM. The value for `CO/C(=C\C=C\c1cc2cc(Cl)ccc2[nH]1)C(=O)NCCCN1CCN(c2cc(Cl)ccc2OC)CC1` was 880 nM. To `CC(=O)NC1=NC(C)(C)N(OCCCOc2ccc(Cl)c(Cl)c2)C(NC(C)=O)=N1` belongs 10 nM; to `Cc1ccc2nc(C)cc(NN=CC=Cc3ccccc3)c2c1`, 840 nM; to `CCNC(=NCc1ccccc1)NCCCCCCNC(=NCc1ccccc1)NCC`, 700 nM. `Oc1ccc(Br)cc1-c1nc2ccc(Cl)cc2nc1-c1cc(Br)ccc1O` displayed an IC50 of 790 nM.

For the compound `COC(=O)c1cccc(NC(=O)NC2CCN(c3ccnc(Nc4ccc(OC)cc4)n3)C2)c1` (configuration not stated), the IC50 was found to be 470 nM. The compound `COc1cc(CNc2ccc(N3CCCC3)cc2)cc(Cl)c1OC` showed an IC50 of 700 nM. The compound `O=C(CC1CCCC1)N(CC1CCN(Cc2ccc(C(F)(F)F)cc2)CC1)c1ccc(N2CCOCC2)c(F)c1` showed a half-maximal inhibitory concentration (IC50) of 430 nM.

The compound `CCCN1CCN(Cc2ccc(-c3ccc(-c4nc5ccccc5[nH]4)s3)cc2)CC1` yielded a 50% inhibitory concentration (IC50) of 610 nM. The value for `COc1cc(C=NNc2cc(C)nc3ccccc23)cc(OC)c1OC` was 730 nM; that for `O=C(Nc1ccc2c(ccn2C2CCCN(Cc3cc(F)cc(F)c3F)CC2)c1)c1ccco1` (configuration not stated) was 650 nM; that for `O=C(Nc1ccc(Cn2nc(Cl)c(N3CCNCC3)cc2=O)cc1)Nc1ccc(-c2ccccc2)cc1` was 750 nM. To `Oc1ccc2c(CNCCc3ccccc3)c(O)ccc2c1CNCCc1ccccc1` belongs 100 nM.

`CC(C)CN1C(=O)C(c2ccc(F)c(F)c2)=C(O)C1c1ccccc1` (configuration not stated): the concentration for half-maximal inhibition (IC50) was found to be 190 nM. The value for `COc1ccc2nc(-c3ccc(F)cc3)cc([C@@H](O)[C@@H]3C[C@@H]4CCN3CC4C=NO)c2c1` (some centres not stated) was 250 nM; that for `COc1ccc(NC(=O)c2ccc(-c3ccc(-c4cccnc4)cc3)c(C)c2)cc1OCCN(C)C` was 200 nM. The value for `COc1ccc(NC(=O)[C@H](CC(C)C)Nc2cc(C)nc(NCc3ccccc3C)n2)cc1` was 890 nM; that for `CCOc1ccc2c(NN=Cc3cccc([N+](=O)[O-])c3)cc(C)nc2c1` was 220 nM. `Cc1[nH]c2ccccc2c1C=NNc1nc(Nc2ccccc2)nc(Nc2ccccc2)n1` gave a half-inhibitory concentration (IC50) of 930 nM. The value for `O=C(/C=C/c1ccc(Cl)c(Cl)c1)NCCCCCN1CCN(C(=O)Nc2ccc(Cl)c(C(F)(F)F)c2)CC1` was 820 nM; that for `Cc1ccc2c(c1)c(C1CCN(C(=O)c3ccc([N+](=O)[O-])o3)CC1)cn2C` was 750 nM; that for `CN1CCC(Oc2ccc(NC(=O)c3ccc4c(=O)n(Cc5ccccc5)cnc4c3)cc2Cl)CC1` was 950 nM. Take `CN(C)CCN(C)Cc1cccc(-c2ccc3c(Nc4cc(O)c(Cl)cc4F)ccnc3c2)c1`: the half-maximal inhibitory concentration (IC50) was 240 nM. Compared with the last compound, the IC50 is about 4-fold lower. Turning to `Cc1cc(N[C@@H](Cc2ccccc2)C(=O)Nc2ccccc2)nc(NCCc2ccccc2)n1`, the IC50 turned out to be 870 nM. Compared with the last compound, the IC50 is about 3.6-fold higher.

Consider `O=C(NCCCCN1CCC(c2ccc([N+](=O)[O-])cc2)CC1)c1ccc(NC(=O)c2ccc(Cl)cc2)cc1`, for which the half-maximal inhibitory concentration (IC50) was found to be 760 nM. To `NC(N)=NN=Cc1c2ccc(Cl)cc2c(Cl)c2ccc(Cl)cc12` belongs 960 nM; to `O=c1[nH]c2ccc3[nH]cccc3c2c1C=Nc1ccc(N2CCN(CCO)CC2)cc1`, 1270 nM. `CC(=O)NCCNc1nccc(N2CCc3ncnc(Nc4ccc(OCc5ccccn5)c(Cl)c4)c3C2)n1` returned an IC50 of 820 nM.

As to `CC(C)(C)C1CCC(C(=O)c2ccc3ccccc3c2O)CC1` (configuration not stated), the IC50 worked out at 750 nM.

For `Cc1cc(OC(C)C(=O)N2CCc3ccccc32)ccc1Cl` (configuration not stated), the IC50 turned out to be 790 nM. The value for `CNCCNCc1ccc(-c2ccc(-c3nc4ccc(C(F)(F)F)cc4[nH]3)s2)cc1` was 600 nM; that for `CCN(CC)CCNc1cc(C)nc(/N=C(\N)Nc2ccc(Cl)cc2)n1` was 130 nM. The value for `CCCOc1cc(OCCC)cc(-c2cc(=O)c3ccccc3[nH]2)c1` was 60 nM; that for `O=C(Nc1cccc(-c2ccc(-c3nc4ccc(F)cc4[nH]3)s2)c1)c1cccnc1` was 610 nM; that for `CCCc1cc(C(=O)N[C@@H](Cc2ccccc2)[C@H](O)CNC2CCOCC2)c(F)c(N2CCCCS2(=O)=O)c1` was 170 nM. On to `COc1ccc(OCCCN2CCN(CC(c3ccc(F)cc3)N3CCN(C(C)C)CC3)CC2)c2ccccc12` (configuration not stated), for which the IC50 is 650 nM. The value for `O=c1cc(NCCCNCc2cc(C(F)(F)F)ccc2Cl)[nH]c2ccccc12` was 1020 nM; that for `CCCC[C@@H](C(=O)NCc1ccccc1C(F)(F)F)N1C(=O)CCC1C(=O)Nc1ccc([N+](=O)[O-])cc1` (some centres not stated) was 850 nM; that for `Cc1ccc(Nc2nccc(NCC(O)c3cccc(F)c3)n2)cc1` (configuration not stated) was 670 nM.

`CC(C)COc1ccc(Cl)cc1Cc1nc(-c2nc3nc(N4CCN(C)CC4)ccc3[nH]2)cs1` showed a 50% inhibitory concentration (IC50) of 750 nM. The value for `O=S1N=C(NCCCN(Cc2cccs2)c2ccccn2)C(NCc2ccccc2)=N1` (configuration not stated) was 310 nM.

In the case of `O=C(NCCN1CCCC1)c1cccc(-c2ccc(-c3nc4ccc(F)cc4[nH]3)cc2)c1`, the concentration for half-maximal inhibition (IC50) amounted to 720 nM. The value for `CC(Cc1ccc(SC(C)(C)C)cc1)NCC(O)c1cccc(Cl)c1` (configuration not stated) was 320 nM; that for `COc1cc2c(cc1OC)C(C(=O)Nc1cc(OC)c(OC)c(OC)c1)C(c1ccc(SC)cc1)N(C)C2=O` (configuration not stated) was 990 nM; that for `Cc1cccc2[nH]c(-c3ccc(-c4cccc(CNCc5ccc(CN)cc5)c4)s3)nc12` was 610 nM.

`O=C(Nc1nc(-c2ccccn2)cs1)c1ccccc1COc1ccccc1` came in with an IC50 of 970 nM. To `NC(=O)NC(=O)C=Cc1ccco1` belongs 150 nM; to `CCCN1CCN(CC(O)CNC(=O)Nc2ccc(Cl)cc2)CC1` (configuration not stated), 100 nM. The value for `NC(=O)c1ccc(C(=O)Nc2cccc(-c3ccc(-c4nc5ccc(C(F)(F)F)cc5[nH]4)cc3)c2)cc1` was 510 nM; that for `CN(C)CCCN(C)C(=O)c1cc2cc(-c3ccccc3)ccc2n1S(=O)(=O)c1ccccc1` was 460 nM; that for `CCc1ccc(C(=O)Nc2cccc(CN3CCCN(Cc4ccc(O)cc4)CC3)c2)cc1` was 1030 nM.

Regarding `CC(=O)Nc1ccc(C(=O)Nc2cccc(-c3ccc(-c4nc5ccccc5[nH]4)s3)c2)cn1`, the IC50 is 180 nM. Against the preceding compound, the IC50 is about 5.7-fold lower. The value for `COc1cc(C(=O)N2CCOC(CCN3CCc4c(c5ccccc5n4C)C3)(c3ccc(Cl)c(Cl)c3)C2)cc(OC)c1OC` (configuration not stated) was 360 nM; that for `COc1cccc(CN2CCCC(OC(c3ccc(F)cc3)c3ccc(F)cc3)C2)c1O` (configuration not stated) was 790 nM; that for `COc1ccccc1-c1ccc2nnc(SCC(=O)Nc3ccc4c(c3)OCCO4)n2n1` was 720 nM.

`COc1ccc2nccc(NC(=O)C3(O)CCC(NCc4ccc5c(c4)NCCS5)CC3)c2n1` (configuration not stated) gave a concentration for half-maximal inhibition (IC50) of 600 nM. To `CN1CCN(c2ccnc3cc4c(cc23)N(C(=O)Nc2ccc3c(c2)CCCC3=O)CC4)CC1` belongs 620 nM.

`COc1ccc(-n2ncc(C(=O)N3CCC4(C3)C(=O)N(c3ccccc3)c3ccccc34)c2C)cc1` (configuration not stated) showed an IC50 of 930 nM. The value for `N#CCCN1CCN(Cc2ccc(-c3cccc(-c4nc5ccc(F)cc5[nH]4)c3)cc2)CC1` was 970 nM. To `CCCCCC(C)NC[C@@H](O)[C@H](Cc1ccccc1)NC(=O)c1cc(NCC)cc(N2CCCCS2(=O)=O)c1` (some centres not stated) belongs 400 nM; to `Cc1cc(=O)[nH]c(-n2nc(C)cc2NC(=O)C2(c3ccc(Cl)cc3)CCCC2)n1`, 290 nM. Turning to `Cc1cccc2[nH]c(-c3ccc(-c4ccc(NC(=O)Nc5ccc(F)c(F)c5F)cc4)cc3)nc12`, the half-maximal inhibitory concentration (IC50) came out at 270 nM.

`c1ccc(C23N=C(Nc4nc5ccccc5[nH]4)NC2(c2ccccc2)NC(Nc2nc4ccccc4[nH]2)=N3)cc1` (configuration not stated) yielded an IC50 of 280 nM. `CC1CN(c2ccc(NC(=O)c3cccs3)cc2)CCN1Cc1cccc(F)c1` (configuration not stated) showed a half-inhibitory concentration (IC50) of 490 nM.

`CC(C)(C)c1ccc2nc(-c3ccc(/C=C/C(=O)NCc4cccc(C(F)(F)F)c4)cc3)[nH]c2c1` displayed a 50% inhibitory concentration (IC50) of 990 nM. `COc1cc(NC(=O)c2ccc(-c3ccc(C(C)=O)cc3)s2)ccc1OCCN1CCCC1`: the IC50 worked out at 150 nM. To `O=C(Nc1ccc(-c2csc(-c3nc4ccccc4[nH]3)c2)cc1)Nc1ccc(F)c(F)c1F` belongs 330 nM; to `COc1cc2nc(N3CCC(CNC(=O)/C=C/c4ccccc4F)CC3)nc(N)c2cc1OC`, 580 nM. The value for `O=C(Nc1ccc(-c2csc3nccn23)cc1)c1ccc(Cl)cc1` was 580 nM; that for `COc1ccc(CN2CCC(NCc3cccc(C(F)(F)F)c3)CC2)cc1` was 750 nM; that for `COc1ccccc1N1CCN(C(C(=O)NCc2ccc3c(c2)OCO3)c2ccc(C)cc2)CC1` (configuration not stated) was 980 nM.

`COC(=O)c1cc(/C(C)=N/Nc2nc3ccccc3[nH]2)ccc1O` yielded an IC50 of 680 nM. To `Cc1ccc(NC(=O)c2ccc3ncccc3c2)cc1OC1CCN(Cc2ccco2)C1` (configuration not stated) belongs 1250 nM. As for `CCCCCCN1CCCN(Cc2ccc(C(=O)Nc3ccc(CC)cc3)cc2)CC1`, the IC50 came to 760 nM.

In the case of `CC(C)(C)c1ccc2nc(-c3ccc(/C=C/C(=O)NCc4ccc(Cl)c(Cl)c4)cc3)[nH]c2c1`, the IC50 was 40 nM. To `O=C1Nc2cccc3c2C1(CCCCCN1CC=C(c2c[nH]c4ccccc24)CC1)CCC3` (configuration not stated) belongs 740 nM.

As usually defined, the IC50 is the point on the concentration scale where inhibition reaches its midpoint.
